Source: patent US20250361284A1, “TRANSPOSASE FUSION PROTEINS FOR USE IN CELL AND GENE THERAPY” (JULIUS-MAXIMILIANS-UNIVERSITÄT WÜRZBURG, priority 2022, published 2025)

Legend:
K562/CD19 target cells = experiment: Bioluminescence-based cytolytic activity of CD8+ CD19 CAR T cells; type: cell-based, human; conditions: TMP 1000 nM
Experimental: (5C) Specific cytolytic activity of CD8+ CD19 CAR-T cells against K562/CD19 target cells. Cytolytic activity of CD8+ CD19-CAR T cells was evaluated by co-culture with K562/CD19 or K562 target cells using a bioluminescence-based assay. The assay was setup with effector T cells (CD8+ CD19-CAR T cells) at various effector/target (E:T) ratios in 96 well flat bottom plates. Luminescence intensities were recorded at specific time points (1, 3, 5, 24 hours) using a luminometer. Specific lysis was calculated using the standard formula. Data shown are from one representative experiment.
(5D) Specific cytolytic activity of CD8+ CD19 CAR-T cells engineered with dd-SB100X fusion transposase vs. wild type SB100X transposase. […] Data was analyzed by unpaired t-test.
Anonymous healthy donor blood samples were received upon written consent to participate in research protocols approved by the Institutional Review Board of the Universitätsklinikum Würzburg (UKW). Blood samples were processed for T cells isolation as published earlier (Querques et al., 2019). Briefly, Peripheral blood mononuclear cells (PBMCs) were isolated by density centrifugation with Biocoll separating solution (Biochrom). Both CD4+ and CD8+ T cells were sorted by negative isolation approach using microbeads and magnetic associated cell sorting (MACS, Miltenyi) methods as described by the manufacturer. […]

human CD4+ T cells = experiment: Gene transfer (EGFRt+ T cells, flow cytometry) with degron-SB100X in CD4+ T cells; type: cell-based; conditions: for gene transfer rate (EGFRt+ T cells): day 7 post-nucleofection, n=1
Experimental: (1E) Testing the activity of IKZF3 zinc finger-based degron-SB100X fusion-transposase in human CD4+ T cells. For each condition, 2 million CD3/CD28 activated CD4+ T cells were nucleofected with minicircle DNA encoding a CD19-CAR_EGFRt SB transposon, and plasmid DNA encoding either the wild type SB transposase (SB100X) or the SB fusion-transposase (degron-SB100X). Cells were cultured either in the presence of Pomalidomide (P; 10 μM) or DMSO (D) at the time of nucleofection. At 7 days post-nucleofection, flow cytometric analysis was performed to determine the percentage of T cells that expresses the EGFRt reporter that was encoded in cis with the CD19-CAR. Top panel: Dot plots showing EGFRt expression on day 7 post-nucleofection. Bottom panel: Bar graph showing the percentage of EGFRt+ T cells on day 7 post-nucleofection (n=1).
Anonymous healthy donor blood samples were received upon written consent to participate in research protocols approved by the Institutional Review Board of the Universitätsklinikum Würzburg (UKW). Blood samples were processed for T cells isolation as published earlier (Querques et al., 2019). Briefly, Peripheral blood mononuclear cells (PBMCs) were isolated by density centrifugation with Biocoll separating solution (Biochrom). Both CD4+ and CD8+ T cells were sorted by negative isolation approach using microbeads and magnetic associated cell sorting (MACS, Miltenyi) methods as described by the manufacturer. The isolated CD4+ and CD8+ T cells were cultured in T cell medium (RPMI-1640 with 10% (vol/vol) human serum, 2 mM L-glutamine, 100 U ml-1 penicillin-streptomycin) containing IL-2 (50 units per mL) and activated by anti-CD3/CD28 bead stimulation (Thermo Fisher). Two days post-activation, approximately 2 million T cells were nucleofected with vectors (1 μg of CD19 CAR (EGFRt)-encoding transposon as plasmid or minicircle DNA; 1 μg of mRNA encoding SB transposase) or 10 μg of hsSB protein (Querques et al., 2019) using a 4D Nucleofector (Lonza) as per the manufacturer's instructions. […]

## COc1cc(Cc2cnc(N)nc2N)cc(OC)c1OC [TMP, trimethoprim]
K562/CD19 target cells
  effect of TMP treatment on subsequent function of CAR T cells: no adverse effects

## degron-SB100X: IKZF3 zinc finger degron tag fused via linker to N-terminus of SB100X transposase; SEQ ID NO: 3
Human CD4+ T cells; DMSO
  gene transfer rate (EGFRt+ T cells): ~46.4%
Human CD4+ T cells; pomalidomide 10 μM
  gene transfer rate (EGFRt+ T cells): ~1.74%

## Nc1cccc2c1C(=O)N(C1CCC(=O)NC1=O)C2=O (stereo not shown) [pomalidomide, reference compound]
Human CD4+ T cells; pomalidomide 10 μM vs DMSO
  effect of pomalidomide on activity of wild type SB100X (lacking the degron tag): interfered with the activity of wild type SB100X
